Reference: US11040028B2, “Penicinotam derivative, preparation method and use thereof” (OCEAN UNIVERSITY OF CHINA, priority 2017, dated 2021)

Key:
Type in all cases: cell-based
[1] = tested on: mouse macrophages (RAW264.7); assay: Lipopolysaccharide-induced NO secretion in macrophages (Griess); conditions: Mus musculus, RAW264.7, 24 h, RAW264.7, LPS 1 μg/ml, a/b isomers given as first/second symbol, read-out: IC50 (μM), inhibition of lipopolysaccharide-induced NO secretion in macrophages
Summary of the method: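 Absorbance at 548 nm after Griess reagent addition to culture supernatant gave NO content; inhibition rate was derived relative to blank control. Cells were mouse RAW264.7 macrophages exposed to compounds and 1 μg/ml LPS for 24 hours.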

BHK-21 cells = assay: Anti-fibrosis activity test: inhibition of BHK-21 cell proliferation (CCK-8); conditions: Mesocricetus auratus, BHK-21, 48 h
Summary of the method: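 Proliferation inhibition was read as CCK-8 absorbance at 450 nm (2-hour development) relative to untreated blank, with IC50 fitted from the curve. Before that, adhered cells (2×10^4 cells/mL, 24 hours) had 48 hours' treatment at several concentrations, in triplicate, at 37° C/5% CO2; pirfenidone was the reference.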

[2] = tested on: human lung fibroblasts HFL1; assay: Anti-fibrosis activity test: inhibition of proliferation of human lung fibroblasts HFL1 (CCK-8); conditions: Homo sapiens, HFL1, 48 h
Summary of the method: (§1)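 Read-out: absorbance at 450 nm after 2 h with CCK-8, following 48 h of compound exposure of adhered cells (2×10^4 cells/mL, 24 h attachment, 37° C, 5% CO2). Proliferation inhibition was taken relative to the blank control, and IC50 values were calculated from it.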

[3] = tested on: cardiac fibroblast RAT-iCell-C002; assay: Anti-fibrosis activity test: inhibition of proliferation of cardiac fibroblast RAT-iCell-C002 (CCK-8); conditions: Cardiac fibroblast, 48 h
Summary of the method: as §1

[4] = tested on: human embryonic lung fibroblast IMR-90; assay: Anti-fibrosis activity test: inhibition of proliferation of human embryonic lung fibroblast IMR-90 (CCK-8)
Summary of the method: as §1

[5] = tested on: human dermal fibroblasts CCC-ESF-1; assay: Anti-fibrosis activity test: inhibition of proliferation of human dermal fibroblasts CCC-ESF-1 (CCK-8); conditions: Fibroblast
Summary of the method: as §1

[6] = tested on: human hepatic stellate cells LX-2; assay: Anti-fibrosis activity test: inhibition of proliferation of human hepatic stellate cells LX-2 (CCK-8); conditions: Homo sapiens, 48 h
Summary of the method: as §1

[7] = tested on: human fibrosarcoma cells HT-1080; assay: Anti-fibrosis activity test: inhibition of proliferation of human fibrosarcoma cells HT-1080 (CCK-8); conditions: Homo sapiens, HT-1080, 48 h
Summary of the method: as §1

[8] = CCK-8, 48 hours after administration
[9] = human lung fibroblasts HFL1, CCK-8, 48 hours
[10] = cardiac fibroblast RAT-iCell-C002, CCK-8, 48 hours
[11] = human embryonic lung fibroblast IMR-90, CCK-8, 48 hours
[12] = human dermal fibroblasts CCC-ESF-1, CCK-8, 48 hours
[13] = human hepatic stellate cells LX-2, CCK-8, 48 hours
[14] = human fibrosarcoma cells HT-1080, CCK-8, 48 hours
[15] = Homo sapiens, IMR-90 cells, 48 h, CCK-8
[16] = Homo sapiens, CCC-ESF-1 cells, 48 h, CCK-8

| SMILES | IC50 [1] [µM] | IC50 [7, 14] [mM] | IC50 ([7]; HT-1080 cells, 48 h, CCK-8) [mM] | IC50 (BHK-21 cells; [8]) [mM] | IC50 [2, 9] [mM] | IC50 [3, 10] [mM] | IC50 [4, 11] [mM] | IC50 [5, 12] [mM] | IC50 [6, 13] [mM] | IC50 (BHK-21 cells; 48 h, CCK-8) [mM] | IC50 ([2]; HFL1 cells, 48 h, CCK-8) [mM] | IC50 ([3]; RAT-iCell-C002 cells, CCK-8) [mM] | IC50 [4, 15] [mM] | IC50 [5, 16] [mM] | IC50 ([6]; LX-2, 48 h, LX-2 cells, CCK-8) [mM] |
| --- | --- | --- | --- | --- | --- | --- | --- | --- | --- | --- | --- | --- | --- | --- | --- |
| O=C1c2c(n(Cc3cccc(F)c3)c3cc(F)ccc3c2=O)-c2cccn21 [Compound 491a, 6-Fluoro-4-(3-fluorobenzyl)-9H-pyrrolizino[1,2-b]quinoline-9,10(4H)-dione] | 10 to 50 | 0.05 to 5 |  | < 0.05 | 0.05 to 5 | 0.05 to 5 | 0.05 to 5 | 0.05 to 5 | 0.05 to 5 |  |  |  |  |  |  |
| O=C1c2c(n(Cc3cccc(Cl)c3)c3cc(F)ccc3c2=O)-c2cccn21 [Compound 497a, 4-(3-Chlorobenzyl)-6-fluoro-9H-pyrrolizino[1,2-b]quinoline-9,10(4H)-dione] | 0.1 to 1 | 0.05 to 5 |  | 0.05 to 5 | 0.05 to 5 | < 0.05 | 0.05 to 5 | 0.05 to 5 | 0.05 to 5 |  |  |  |  |  |  |
| O=C1c2c([nH]c3cc(Cl)ccc3c2=O)-c2cccn21 [Compound 500a, 6-Chloro-9H-pyrrolizino[1,2-b]quinoline-9,10(4H)-dione] | 0.1 to 1 | 0.05 to 5 |  | 0.05 to 5 | 0.05 to 5 | 0.05 to 5 | 0.05 to 5 | 0.05 to 5 | < 0.05 |  |  |  |  |  |  |
| O=C1c2c(nc3cc(Cl)ccc3c2O)-c2cccn21 [Compound 500b, 6-chloro-9-hydroxy-10H-pyrrolizino[1,2-b]quinolin-10-one] | 1 to 10 | 0.05 to 5 |  | 0.05 to 5 | 0.05 to 5 | 0.05 to 5 | 0.05 to 5 | 0.05 to 5 | 0.05 to 5 |  |  |  |  |  |  |
| O=C1c2c(n(Cc3ccccc3F)c3cc(Cl)ccc3c2=O)-c2cccn21 [Compound 504a, 6-Chloro-4-(2-fluorobenzyl)-9H-pyrrolizino[1,2-b]quinoline-9,10(4H)-dione] | 1 to 10 | 0.05 to 5 |  | < 0.05 | 0.05 to 5 | 0.05 to 5 | 0.05 to 5 | 0.05 to 5 | 0.05 to 5 |  |  |  |  |  |  |
| O=C1c2c(n(Cc3ccc(Cl)cc3)c3cc(Cl)ccc3c2=O)-c2cccn21 [Compound 508a, 6-Chloro-4-(4-chlorobenzyl)-9H-pyrrolizino[1,2-b]quinoline-9,10(4H)-dione] | 1 to 10 | 5 to 20 |  | 0.05 to 5 | 0.05 to 5 | 0.05 to 5 | 0.05 to 5 | 0.05 to 5 | 0.05 to 5 |  |  |  |  |  |  |
| Cc1ccc2[nH]c3c(c(=O)c2c1)-c1cccn1C3=O [Compound 777a, 9-Methyl-5H-pyrrolizino[2,1-b]quinoline-5,11(6H)-dione] | 10 to 50 |  | 0.05 to 5 |  |  |  |  |  |  | < 0.05 | 0.05 to 5 | 0.05 to 5 | 0.05 to 5 | 0.05 to 5 | 0.05 to 5 |
| Cc1ccc2nc3c(c(O)c2c1)-c1cccn1C3=O [Compound 777b, 11-hydroxy-9-methyl-5H-pyrrolizino[2,1-b]quinolin-5-one] | 1 to 10 |  | 0.05 to 5 |  |  |  |  |  |  | 0.05 to 5 | 0.05 to 5 | 0.05 to 5 | 0.05 to 5 | 0.05 to 5 | 0.05 to 5 |
| Cc1ccc2c(=O)c3c([nH]c2c1)C(=O)n1cccc1-3 [Compound 778a, 8-Methyl-5H-pyrrolizino[2,1-b]quinoline-5,11(6H)-dione] | 10 to 50 |  | 0.05 to 5 |  |  |  |  |  |  | 0.05 to 5 | 0.05 to 5 | 0.05 to 5 | 0.05 to 5 | 0.05 to 5 | 0.05 to 5 |
| Cc1ccc2c(O)c3c(nc2c1)C(=O)n1cccc1-3 [Compound 778b, 11-hydroxy-8-methyl-5H-pyrrolizino[2,1-b]quinolin-5-one] | 1 to 10 |  | 0.05 to 5 |  |  |  |  |  |  | 0.05 to 5 | 0.05 to 5 | 0.05 to 5 | 0.05 to 5 | 0.05 to 5 | 0.05 to 5 |

Continued, in another order:

| IC50 [1] [µM] | IC50 [7, 14] [mM] | IC50 ([7]; HT-1080 cells, 48 h, CCK-8) [mM] | SMILES | IC50 (BHK-21 cells; [8]) [mM] | IC50 [2, 9] [mM] | IC50 [3, 10] [mM] | IC50 [4, 11] [mM] | IC50 [5, 12] [mM] | IC50 [6, 13] [mM] | IC50 (BHK-21 cells; 48 h, CCK-8) [mM] | IC50 ([2]; HFL1 cells, 48 h, CCK-8) [mM] | IC50 ([3]; RAT-iCell-C002 cells, CCK-8) [mM] | IC50 [4, 15] [mM] | IC50 [5, 16] [mM] | IC50 ([6]; LX-2, 48 h, LX-2 cells, CCK-8) [mM] |
| --- | --- | --- | --- | --- | --- | --- | --- | --- | --- | --- | --- | --- | --- | --- | --- |
| 1 to 10 | 0.05 to 5 |  | O=C1c2c(nc3c(F)c(N4CCNCC4)ccc3c2OCc2ccc(Cl)cc2)-c2cccn21 [Compound 484b, 9-((4-chlorobenzyl)oxy)-5-fluoro-6-(piperazin-1-yl)-10H-pyrrolizino[1,2-b]quinolin-10-one] | 0.05 to 5 | 0.05 to 5 | 0.05 to 5 | 0.05 to 5 | 0.05 to 5 | 0.05 to 5 |  |  |  |  |  |  |
| 10 to 50 | 0.05 to 5 |  | O=C1c2c(n(Cc3ccc(F)cc3)c3c(F)c(N4CCNCC4)ccc3c2=O)-c2cccn21 [Compound 485a, 5-Fluoro-4-(4-fluorobenzyl)-6-(piperazin-1-yl)-9H-pyrrolizino[1,2-b]quinoline-9,10(4H)-dione] | 0.05 to 5 | 0.05 to 5 | 0.05 to 5 | 0.05 to 5 | 0.05 to 5 | 0.05 to 5 |  |  |  |  |  |  |
| 1 to 10 | 0.05 to 5 |  | O=C1c2c(nc3c(F)c(N4CCNCC4)ccc3c2OCc2ccc(F)cc2)-c2cccn21 [Compound 485b, 5-fluoro-9-((4-fluorobenzyl)oxy)-6-(piperazin-1-yl)-10H-pyrrolizino[1,2-b]quinolin-10-one] | 0.05 to 5 | 0.05 to 5 | 0.05 to 5 | 0.05 to 5 | 0.05 to 5 | 0.05 to 5 |  |  |  |  |  |  |
| 10 to 50 | 0.05 to 5 |  | O=C1c2c(n(Cc3ccc(F)cc3)c3cc(F)ccc3c2=O)-c2cccn21 [Compound 490a, 6-Fluoro-4-(4-fluorobenzyl)-9H-pyrrolizino[1,2-b]quinoline-9,10(4H)-dione] | 0.05 to 5 | 0.05 to 5 | < 0.05 | 0.05 to 5 | 0.05 to 5 | 0.05 to 5 |  |  |  |  |  |  |
| 1 to 10 | 0.05 to 5 |  | O=C1c2c(nc3cc(F)ccc3c2OCc2ccc(F)cc2)-c2cccn21 [Compound 490b, 6-fluoro-9-((4-fluorobenzyl)oxy)-10H-pyrrolizino[1,2-b]quinolin-10-one] | 0.05 to 5 | 0.05 to 5 | 0.05 to 5 | 0.05 to 5 | 0.05 to 5 | 0.05 to 5 |  |  |  |  |  |  |
| 1 to 10 | 0.05 to 5 |  | O=C1c2c(nc3cc(F)ccc3c2OCc2cccc(F)c2)-c2cccn21 [Compound 491b, 6-fluoro-9-((3-fluorobenzyl)oxy)-10H-pyrrolizino[1,2-b]quinolin-10-one] | 0.05 to 5 | 0.05 to 5 | 0.05 to 5 | 0.05 to 5 | 0.05 to 5 | 0.05 to 5 |  |  |  |  |  |  |
| 1 to 10 | 0.05 to 5 |  | O=C1c2c(nc3cc(F)ccc3c2OCc2cccc(Cl)c2)-c2cccn21 [Compound 497b, 9-((3-chlorobenzyl)oxy)-6-fluoro-10H-pyrrolizino[1,2-b]quinolin-10-one] | 0.05 to 5 | 0.05 to 5 | 0.05 to 5 | 0.05 to 5 | 0.05 to 5 | 0.05 to 5 |  |  |  |  |  |  |
| 1 to 10 | 0.05 to 5 |  | O=C1c2c(n(Cc3ccc(F)cc3)c3cc(Cl)ccc3c2=O)-c2cccn21 [Compound 502a, 6-Chloro-4-(4-fluorobenzyl)-9H-pyrrolizino[1,2-b]quinoline-9,10(4H)-dione] | 0.05 to 5 | 0.05 to 5 | < 0.05 | 0.05 to 5 | 0.05 to 5 | 0.05 to 5 |  |  |  |  |  |  |
| 1 to 10 | 0.05 to 5 |  | O=C1c2c(nc3cc(Cl)ccc3c2OCc2ccc(F)cc2)-c2cccn21 [Compound 502b, 6-chloro-9-((4-fluorobenzyl)oxy)-10H-pyrrolizino[1,2-b]quinolin-10-one] | 0.05 to 5 | 0.05 to 5 | 0.05 to 5 | 0.05 to 5 | 0.05 to 5 | 0.05 to 5 |  |  |  |  |  |  |
| 1 to 10 | 0.05 to 5 |  | O=C1c2c(nc3cc(Cl)ccc3c2OCc2ccccc2F)-c2cccn21 [Compound 504b, 6-chloro-9-((2-fluorobenzyl)oxy)-10H-pyrrolizino[1,2-b]quinolin-10-one] | 0.05 to 5 | 0.05 to 5 | 0.05 to 5 | 0.05 to 5 | 0.05 to 5 | 0.05 to 5 |  |  |  |  |  |  |
| 1 to 10 | < 0.05 |  | O=C1c2c(nc3cc(Cl)ccc3c2OCc2ccc(Cl)cc2)-c2cccn21 [Compound 508b, 6-chloro-9-((4-chlorobenzyl)oxy)-10H-pyrrolizino[1,2-b]quinolin-10-one] | 0.05 to 5 | 0.05 to 5 | 0.05 to 5 | 0.05 to 5 | 0.05 to 5 | 0.05 to 5 |  |  |  |  |  |  |
